{"source": "paper PMC7961853", "about": "(Journal of medicinal chemistry, 2020)", "key": {"GluN1/GluN2D": {"target": "GluN1/GluN2D (Rattus norvegicus, UniProt Q62645)", "sequence (Q62645 28-1323, other chains not shown)": "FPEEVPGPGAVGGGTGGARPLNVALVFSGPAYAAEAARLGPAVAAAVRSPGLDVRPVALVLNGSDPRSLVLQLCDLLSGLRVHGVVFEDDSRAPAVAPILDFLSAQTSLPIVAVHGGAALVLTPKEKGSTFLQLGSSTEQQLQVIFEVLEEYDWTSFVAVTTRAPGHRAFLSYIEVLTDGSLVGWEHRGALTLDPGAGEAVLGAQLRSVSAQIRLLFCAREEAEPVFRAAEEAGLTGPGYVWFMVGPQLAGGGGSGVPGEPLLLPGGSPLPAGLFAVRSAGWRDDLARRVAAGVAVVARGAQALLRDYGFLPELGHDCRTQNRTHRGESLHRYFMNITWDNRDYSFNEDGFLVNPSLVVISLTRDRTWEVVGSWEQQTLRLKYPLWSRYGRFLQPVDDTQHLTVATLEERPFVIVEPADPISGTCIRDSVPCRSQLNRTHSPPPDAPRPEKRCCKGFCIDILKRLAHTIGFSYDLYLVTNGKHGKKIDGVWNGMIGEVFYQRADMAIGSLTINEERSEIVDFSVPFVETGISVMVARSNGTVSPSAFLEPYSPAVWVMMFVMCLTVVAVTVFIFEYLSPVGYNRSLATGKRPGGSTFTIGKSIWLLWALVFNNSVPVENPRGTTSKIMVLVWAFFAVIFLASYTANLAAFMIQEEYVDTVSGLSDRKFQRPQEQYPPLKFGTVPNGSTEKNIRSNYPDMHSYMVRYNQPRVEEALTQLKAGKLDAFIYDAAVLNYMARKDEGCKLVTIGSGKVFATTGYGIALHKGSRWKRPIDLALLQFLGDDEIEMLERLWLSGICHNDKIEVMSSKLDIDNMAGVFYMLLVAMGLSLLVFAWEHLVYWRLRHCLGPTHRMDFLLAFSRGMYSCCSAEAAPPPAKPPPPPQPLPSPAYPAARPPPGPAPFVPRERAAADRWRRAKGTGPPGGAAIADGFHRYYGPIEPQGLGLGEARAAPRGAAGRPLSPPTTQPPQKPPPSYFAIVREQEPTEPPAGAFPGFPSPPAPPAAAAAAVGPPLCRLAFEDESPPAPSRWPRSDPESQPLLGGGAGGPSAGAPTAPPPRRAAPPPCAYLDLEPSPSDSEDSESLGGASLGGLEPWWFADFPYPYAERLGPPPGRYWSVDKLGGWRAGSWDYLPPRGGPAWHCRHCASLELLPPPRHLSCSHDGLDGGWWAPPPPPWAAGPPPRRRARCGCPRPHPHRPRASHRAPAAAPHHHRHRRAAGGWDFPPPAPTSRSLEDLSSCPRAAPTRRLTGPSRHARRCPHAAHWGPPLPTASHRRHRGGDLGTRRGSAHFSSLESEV", "conditions": "percent of control, 100 μM glutamate and 30 μM glycine"}, "[1]": {"tested_on": "GluN2C- and GluN2D-containing receptors", "test": "TEVC recordings, values stated in text jointly for GluN2C/D", "type": "cell-based, rat", "conditions": "for activity at GluN2C/D in words: TEVC evaluation; for p(doubling conc.) at GluN2C/D / pEC50 at GluN2C/D: value or range over GluN2C and GluN2D; for maximum potentiation at GluN2C/D: fitted max, range over GluN2C and GluN2D, saturating co-agonists"}, "GluN1/GluN2C [2]": {"target": "GluN1/GluN2C (Rattus norvegicus, UniProt Q00961)", "sequence (Q00961 20-1237, other chains not shown)": "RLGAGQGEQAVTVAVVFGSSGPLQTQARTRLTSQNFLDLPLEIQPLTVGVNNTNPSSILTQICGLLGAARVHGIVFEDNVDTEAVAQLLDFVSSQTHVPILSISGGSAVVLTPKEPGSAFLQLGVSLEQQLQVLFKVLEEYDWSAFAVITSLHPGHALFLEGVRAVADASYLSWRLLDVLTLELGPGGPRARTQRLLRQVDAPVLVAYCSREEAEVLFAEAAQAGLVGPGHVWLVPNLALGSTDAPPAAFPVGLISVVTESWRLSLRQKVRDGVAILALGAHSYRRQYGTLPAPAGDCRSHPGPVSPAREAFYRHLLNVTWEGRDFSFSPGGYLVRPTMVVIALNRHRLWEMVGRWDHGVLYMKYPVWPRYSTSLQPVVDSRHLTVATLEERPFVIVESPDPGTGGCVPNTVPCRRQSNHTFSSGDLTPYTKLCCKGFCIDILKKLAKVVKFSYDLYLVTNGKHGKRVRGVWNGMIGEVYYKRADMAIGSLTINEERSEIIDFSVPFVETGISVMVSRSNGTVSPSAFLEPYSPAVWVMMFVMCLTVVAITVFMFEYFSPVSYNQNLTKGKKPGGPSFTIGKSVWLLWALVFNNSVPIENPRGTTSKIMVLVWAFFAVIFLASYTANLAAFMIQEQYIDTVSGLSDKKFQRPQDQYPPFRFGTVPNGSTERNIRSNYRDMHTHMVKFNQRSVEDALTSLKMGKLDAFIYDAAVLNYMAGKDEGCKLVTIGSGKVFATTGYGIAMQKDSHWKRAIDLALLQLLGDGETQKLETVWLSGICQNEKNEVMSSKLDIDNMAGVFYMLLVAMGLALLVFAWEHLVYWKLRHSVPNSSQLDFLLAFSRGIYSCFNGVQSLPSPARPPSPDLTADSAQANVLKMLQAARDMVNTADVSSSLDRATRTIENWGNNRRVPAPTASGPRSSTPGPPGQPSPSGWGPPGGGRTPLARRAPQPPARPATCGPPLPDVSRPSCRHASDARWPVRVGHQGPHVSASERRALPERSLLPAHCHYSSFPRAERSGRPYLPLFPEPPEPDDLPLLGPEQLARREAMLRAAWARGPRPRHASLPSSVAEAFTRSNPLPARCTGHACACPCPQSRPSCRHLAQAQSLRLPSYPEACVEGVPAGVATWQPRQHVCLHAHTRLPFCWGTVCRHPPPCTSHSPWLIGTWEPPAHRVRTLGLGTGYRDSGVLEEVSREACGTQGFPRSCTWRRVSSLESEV", "conditions": "percent of control, 100 μM glutamate and 30 μM glycine"}, "[3]": {"tested_on": "GluN2A- or GluN2B-containing receptors", "test": "TEVC recordings, values stated jointly for GluN2A/B", "type": "cell-based, rat", "conditions": "10 or 30 μM compound"}, "GluN1/GluN2C [4]": {"target": "GluN1/GluN2C (Rattus norvegicus, UniProt P35439+Q00961)", "sequence (Q00961 20-1237, other chains not shown)": "as above", "test": "cell-based"}, "α4β2-nACh": {"tested_on": "α4β2-nACh", "type": "cell-based", "conditions": "10 μM compound, saturating agonist"}, "[5]": {"conditions": "20 mg/kg i.p., cited from earlier work"}, "[6]": {"test": "plasma protein binding by equilibrium dialysis", "type": "in vitro ADME, rat", "conditions": "1 μM of drug"}, "[7]": {"test": "pharmacokinetics in mice, i.p. dosing, plasma and brain by LC/MS-MS", "conditions": "male, C57Bl/6, mouse, ip, 10 mg/kg"}, "[8]": {"test": "stability as a powder or DMSO stock", "type": "physicochemical", "conditions": "room temperature under regular atmosphere; longest time tested"}, "[9]": {"target": "GluN2A-containing receptors", "conditions": "cited from earlier work"}}}
{"molecule": "1-((4-Ethoxyphenoxy)methyl)-2-(3-(trifluoromethyl)benzyl)-1,2-dihydropyrrolo[1,2-a]pyrazine-3(4H)-thione [compound 32]", "values": [{"measurement": "max (%) GluN2D, pEC50 ND: percent potentiation at 30 μM drug", "setting": "GluN1/GluN2D", "value": "ND (110) %"}, {"measurement": "activity at GluN2C/D in words", "setting": "[1]", "value": "complete loss of activity"}, {"measurement": "max (%) GluN2C, pEC50 ND: percent potentiation at 30 μM drug", "setting": "GluN1/GluN2C [2]", "value": "ND (120) %"}]}
{"molecule": "COc1ccc(OCC2c3ccc(OC)cc3CC(=O)N2CCCC(F)(F)F)cc1", "note": "(stereo not shown) [12f, 6-Methoxy-1-((4-methoxyphenoxy)methyl)-2-(4,4,4-trifluorobutyl)-1,2-dihydroisoquinolin-3(4H)-one]", "values": [{"measurement": "p(doubling conc.) at GluN2C/D", "setting": "[1]", "value": "5.0–5.1"}]}
{"molecule": "COc1ccc(OCC2c3ccc(OC)cc3CC(=O)N2CC(F)(F)F)cc1", "note": "(stereo not shown) [12g, 6-Methoxy-1-((4-methoxyphenoxy)methyl)-2-(2,2,2-trifluoroethyl)-1,2-dihydroisoquinolin-3(4H)-one]", "values": [{"measurement": "pEC50 at GluN2C/D", "setting": "[1]", "value": "< 4.5"}]}
{"molecule": "COc1ccc(OCC2c3cc(OC)c(OC)cc3CC(=O)N2Cc2cccc(Cl)c2)cc1", "note": "(stereo not shown) [12m, 2-(3-Chlorobenzyl)-6,7-dimethoxy-1-((4-methoxyphenoxy)-methyl)-1,4-dihydroisoquinolin-3(2H)-one]", "values": [{"measurement": "activity at GluN2A/B in words", "setting": "[3]", "value": "no activity"}]}
{"molecule": "COc1cc2c(cc1OC)C(CO)N(C(=O)c1cccc(C(F)(F)F)c1)CC2", "note": "(stereo not shown) [17b, (1-(Hydroxymethyl)-6,7-dimethoxy-3,4-dihydroisoquinolin-2(1H)-yl)(3-(trifluoromethyl)phenyl)methanone]", "values": [{"measurement": "activity at GluN2C/D in words", "setting": "[1]", "value": "not tolerated"}]}
{"molecule": "COc1ccc(OCC2c3cc(OC)c(OC)cc3CCN2C(=O)c2cccc(Cl)c2)s1", "note": "(stereo not shown) [18a, (3-Chlorophenyl)(6,7-dimethoxy-1-(((5-methoxythiophen-2-yl)-oxy)methyl)-3,4-dihydroisoquinolin-2(1H)-yl)methanone]", "values": [{"measurement": "activity at GluN2C/D in words", "setting": "[1]", "value": "not tolerated"}]}
{"molecule": "COc1cc2c(cc1OC)C(COC1CCOCC1)N(C(=O)c1cccc(C(F)(F)F)c1)CC2", "note": "(stereo not shown) [18d, (6,7-Dimethoxy-1-(((tetrahydro-2H-pyran-4-yl)oxy)methyl)-3,4-dihydroisoquinolin-2(1H)-yl)(3-(trifluoromethyl)phenyl)methanone]", "values": [{"measurement": "activity at GluN2C/D in words", "setting": "[1]", "value": "not tolerated"}]}
{"molecule": "COc1ccc(OCC2c3sccc3CCN2C(=O)c2cccc(Cl)c2)cc1", "note": "(stereo not shown) [25a, (3-Chlorophenyl)(7-((4-methoxyphenoxy)methyl)-4,7-dihydrothieno[2,3-c]pyridin-6(5H)-yl)methanone]", "values": [{"measurement": "activity at GluN2A/B in words", "setting": "[3]", "value": "no activity"}, {"measurement": "maximum potentiation at GluN2C/D", "setting": "[1]", "value": "280–350%"}, {"measurement": "p(doubling conc.) at GluN2C/D", "setting": "[1]", "value": "5.3–5.6"}]}
{"molecule": "COc1ccc(OCC2c3cc(OC)sc3CCN2C(=O)c2cccc(Cl)c2)cc1", "note": "(stereo not shown) [25d, (3-Chlorophenyl)(2-methoxy-4-((4-methoxyphenoxy)methyl)-6,7-dihydrothieno[3,2-c]pyridin-5(4H)-yl)methanone]", "values": [{"measurement": "EC50", "setting": "GluN1/GluN2C [4]", "value": 5010, "unit": "nM"}, {"measurement": "Emax", "setting": "GluN1/GluN2C [4]; read-out: max (%) GluN2C", "value": 220, "unit": "%"}]}
{"molecule": "COc1ccc(OCC2c3occc3CCN2C(=O)c2cccc(Cl)c2)cc1", "note": "(stereo not shown) [25f, (3-Chlorophenyl)(7-((4-methoxyphenoxy)methyl)-4,7-dihydrofuro[2,3-c]pyridin-6(5H)-yl)methanone]", "values": [{"measurement": "p(doubling conc.) at GluN2C/D", "setting": "[1]", "value": "5.4–5.5"}]}
{"molecule": "COc1ccc(OCC2c3cnn(C)c3CCN2C(=O)c2cccc(Cl)c2)cc1", "note": "(stereo not shown) [25g, (3-Chlorophenyl)(4-((4-methoxyphenoxy)methyl)-1-methyl-1,4,6,7-tetrahydro-5H-pyrazolo[4,3-c]pyridin-5-yl)methanone]", "values": [{"measurement": "pEC50 at GluN2C/D", "setting": "[1]", "value": "< 4.5"}]}
{"molecule": "COc1ccc(OCC2c3ccsc3CCN2C(=O)c2cccc(Cl)c2)cc1", "note": "(stereo not shown) [25h, (3-Chlorophenyl)(4-((4-methoxyphenoxy)methyl)-6,7-dihydrothieno[3,2-c]pyridin-5(4H)-yl)methanone]", "values": [{"measurement": "maximum potentiation at GluN2C/D", "setting": "[1]", "value": "330–340%"}]}
{"molecule": "COc1ccc(OCC2c3cccn3CCN2C(=O)c2cccc(Cl)c2)cc1", "note": "(stereo not shown) [25i, (3-Chlorophenyl)(1-((4-methoxyphenoxy)methyl)-3,4-dihydropyrrolo[1,2-a]pyrazin-2(1H)-yl)methanone]", "values": [{"measurement": "p(doubling conc.) at GluN2C/D", "setting": "[1]", "value": "5.8–5.9"}]}
{"molecule": "COc1ccc(OCC2c3cccn3CC(=O)N2Cc2cccc(C(F)(F)F)c2)cc1", "note": "(stereo not shown) [31a, 1-((4-Methoxyphenoxy)methyl)-2-(3-(trifluoromethyl)benzyl)-1,2-dihydropyrrolo[1,2-a]pyrazin-3(4H)-one]", "values": [{"measurement": "inhibition of α4β2-nACh current response", "setting": "α4β2-nACh", "value": "> 50", "unit": "%"}, {"measurement": "p(doubling conc.) at GluN2C/D", "setting": "[1]", "value": "5.9–6.1"}]}
{"molecule": "COc1ccc(OCC2c3cc(OC)c(OC)cc3CCN2C(=O)c2cccc(Cl)c2)cc1", "note": "(stereo not shown) [CIQ, (3-chlorophenyl)(6,7-dimethoxy-1-((4-methoxyphenoxy)-methyl)-3,4-dihydroisoquinolin-2(1H)-yl)methanone]", "values": [{"measurement": "Cmax (ng/mL), plasma", "setting": "[5]; 1:4:5 dimethylacetamide:PEG400:(5% dextrose in water)", "value": "2090 ± 20", "unit": "ng/mL"}, {"measurement": "t1/2 (h), plasma", "setting": "[5]", "value": "1.35 ± 0.12", "unit": "h"}, {"measurement": "bound to rat plasma protein", "setting": "[6]", "value": "> 99.9", "unit": "%"}]}
{"molecule": "COc1ccc(OCC2c3cccn3CC(=O)N2Cc2cccc(F)c2)cc1", "note": "(stereo not shown) [EU-1180–453, 2-(3-Fluorobenzyl)-1-((4-methoxyphenoxy)methyl)-1,2-dihydropyrrolo[1,2-a]pyrazin-3(4H)-one]", "values": [{"measurement": "bound to rat plasma protein", "setting": "[6]", "value": 98.7, "unit": "%"}, {"measurement": "Tmax", "setting": "[7]; brain and plasma", "value": 15, "unit": "min"}, {"measurement": "Cmax", "setting": "[7]; plasma", "value": "695 ± 111", "unit": "ng/mL"}, {"measurement": "stable as a powder or a DMSO stock", "setting": "[8]", "value": "at least 30 days"}]}
{"molecule": "N#C[C@@H]1C[C@H]1c1c(Cl)ccc2nc(Cn3nc(C(F)(F)F)cc3Cl)cc(=O)n12", "note": "[GNE-5729]", "values": [{"measurement": "EC50", "setting": "[9]", "value": 37, "unit": "nM"}]}
